Data set [1] in a line: Measurement of LogP values by HPLC on reversed phase columns (EEC directive 79/831 Annex V.A8). Conditions: method [a]: LC-UV, acidic range, 0.1% formic acid in water and acetonitrile; compounds of formula (I-1), Table 1. The format is physicochemical. How it is done:
Calibration was done with straight-chain alkan2-ones (with 3 to 16 carbon atoms) with known LogP values (measurement of LogP values using retention times with linear interpolation between successive alkanones). Lambda-max-values were determined using UV-spectra from 200 nm to 400 nm and the peak values of the chromatographic signals

The test system of data set [2] is Botrytis cinerea. As to the kind of experiment: In vivo preventive test on Botrytis cinerea (grey mould). The conditions noted are these: 500 ppm of active ingredient, preventive spray on gherkin or cabbage, evaluated 4 to 5 days after inoculation, read-out: efficacy. How it is done: The active ingredients were made soluble and homogenized in a mixture of Dimethyl sulfoxide/Acetone//Tween® 80 and then diluted in water to the desired concentration. The young plants of gherkin or cabbage were treated by spraying the active ingredient prepared as described above. Control plants were treated only with an aqueous solution of Acetone/Dimethyl sulfoxide/Tween® 80. After 24 hours, the plants were contaminated by spraying the leaves with an aqueous suspension of Botrytis cinerea spores.

For data set [3], the system named is Pyrenophora teres. Kind of data set: In vivo preventive test on Pyrenophora teres (net blotch on barley). The conditions noted are these: 240 h, 500 ppm of active ingredient, preventive spray on barley, evaluated 10 days after inoculation, read-out: efficacy. How it is done:
The active ingredients were made soluble and homogenized in a mixture of Dimethyl sulfoxide/Acetone//Tween® 80 and then diluted in water to the desired concentration. The young plants of barley were treated by spraying the active ingredient prepared as described above. Control plants were treated only with an aqueous solution of Acetone/Dimethyl sulfoxide/Tween® 80. After 24 hours, the plants were contaminated by spraying the leaves with an aqueous suspension of Pyrenophora teres spores.

For data set [4], the system named is Sphaerotheca fuliginea. As to the kind of experiment: In vivo preventive test on Sphaerotheca fuliginea (powdery mildew on cucurbits). Conditions: Podosphaera fuliginea, 192 h; 500 ppm of active ingredient; preventive spray on gherkin; evaluated 8 days after inoculation; read-out: efficacy. How it is done:
The active ingredients were made soluble and homogenized in a mixture of Dimethyl sulfoxide/Acetone//Tween® 80 and then diluted in water to the desired concentration. The young plants of gherkin were treated by spraying the active ingredient prepared as described above. Control plants were treated only with an aqueous solution of Acetone/Dimethyl sulfoxide/Tween® 80. After 24 hours, the plants were contaminated by spraying the leaves with an aqueous suspension of Sphaerotheca fuliginea spores.

Data set [5] concerns Colletotrichum lindemuthianum. Kind of data set: In vivo preventive test on Colletotrichum lindemuthianum (leaf spot on bean). The conditions noted are these: 168 h, 500 ppm of active ingredient, preventive spray on bean, evaluated 7 days after inoculation, read-out: efficacy. How it is done:
The active ingredients were made soluble and homogenized in a mixture of Dimethyl sulfoxide/Acetone//Tween® 80 and then diluted in water to the desired concentration. The young plants of bean were treated by spraying the active ingredient prepared as described above. Control plants were treated only with an aqueous solution of Acetone/Dimethyl sulfoxide/Tween® 80. After 24 hours, the plants were contaminated by spraying the leaves with an aqueous suspension of Colletotrichum lindemuthianum spores.

In data set [6] the test system is Alternaria alternata. Kind of data set: Alternaria alternata in vitro cell test. The format is cell-based. Conditions: 120 h, 20 ppm of active ingredient, liquid culture, 5 days incubation, read-out: efficacy (inhibition of fungal growth). How it is done: (§1) • Solvent: DMSO • Culture medium: 14.6 g anhydrous D-glucose (VWR), 7.1 g Mycological Peptone (Oxoid), 1.4 g granulated Yeast Extract (Merck), QSP 1 liter • Inoculum: spores suspension Fungicides were solubilized in DMSO and the solution used to prepare the required range of concentrations. […] A spore suspension of A. alternata was prepared and diluted to the desired spore density. Fungicides were evaluated for their ability to inhibit spore germination and mycelium growth in liquid culture assay. The compounds were added in the desired concentration to the culture medium with spores. After 5 days incubation, fungi-toxicity of compounds was determined by spectrometric measurement of mycelium growth. Inhibition of fungal growth was determined by comparing the absorbance values in wells containing the fungicides with the absorbance in control wells without fungicides.

Data set [7] deals with Fusarium culmorum. Kind of data set: Fusarium culmorum in vitro cell test. The format is cell-based. Conditions: 96 h, 20 ppm of active ingredient, liquid culture, 4 days incubation, read-out: efficacy (inhibition of fungal growth). How it is done: • Solvent: DMSO • Culture medium: 14.6 g anhydrous D-glucose (VWR), 7.1 g Mycological Peptone (Oxoid), 1.4 g granulated Yeast Extract (Merck), QSP 1 liter • Inoculum: spore suspension • Fungicides were solubilized in DMSO and the solution used to prepare the required range of concentrations. The final concentration of DMSO used in the assay was ≤1%.
A spore suspension of F. culmorum was prepared and diluted to the desired spore density.
Fungicides were evaluated for their ability to inhibit spore germination and mycelium growth in liquid culture assay. The compounds were added in the desired concentration to the culture medium with spores. After 4 days incubation, fungi-toxicity of compounds was determined by spectrometric measurement of mycelium growth. Inhibition of fungal growth was determined by comparing the absorbance values in wells containing the fungicides with the absorbance in control wells without fungicides.

The test system of data set [8] is Pyricularia Oryzae. Kind of data set: microbe, parasite or virus in culture. The conditions noted are these: 120 h, read-out: efficacy (inhibition of fungal growth). The format is cell-based.
The test system of data set [9] is Colletotrichum lindemuthianum. As to the kind of experiment: Colletotrichum lindemuthianum in vitro cell test. The format is cell-based. Conditions: 144 h, 20 ppm of active ingredient, liquid culture, 6 days incubation, read-out: efficacy (inhibition of fungal growth). How it is done: as §1, with “of C. lindemuthianum” for “of A. alternata”, “inhibit spores” for “inhibit spore”, “After 6” for “After 5”

Data set [10] relates to Septoria tritici. As to the kind of experiment: Septoria tritici in vitro cell test. The format is cell-based. The conditions noted are these: Zymoseptoria tritici, 168 h; 20 ppm of active ingredient; liquid culture, 7 days incubation; read-out: efficacy (inhibition of fungal growth). How it is done: • Solvent: DMSO • Culture medium: 1 g KH2PO4 (VWR), 1 g K2HPO4 (VWR), 0.5 g Urea (VWR), 3 g KNO3 (Prolabo), 10 g saccharose (VWR), 0.5 g MgSO4, 7H2O (Sigma), 0.07 g CaCl2, 2H2O (Prolabo), 0.2 mg MnSO4, H2O (Sigma), 0.6 mg CuSO4, 5H2O (Sigma), 7.9 mg ZnSO4, 7H2O (Sigma), 0.1 mg H3BO3 (Merck), 0.14 mg NaMoO4, 2H2O (Sigma), 2 mg thiamine (Sigma), 0.1 mg biotine (VWR), 4 mg FeSO4, 7H2O (Sigma), QSP 1 liter • Inoculum: spore suspension Fungicides were solubilized in DMSO and the solution used to prepare the required range of concentrations. […] A spore suspension of S. tritici was prepared and diluted to the desired spore density. Fungicides were evaluated for their ability to inhibit spore germination and mycelium growth in liquid culture assay. The compounds were added in the desired concentration to the culture medium with spores. […] Inhibition of fungal growth was determined by comparing the absorbance values in wells containing the fungicides with the absorbance in control wells without fungicides.

Data set [11] relates to Alternaria brassicae. As to the kind of experiment: In vivo preventive test on Alternaria brassicae (leaf spot on radish or cabbage). Conditions: 144 h, 500 ppm of active ingredient, preventive spray on radish or cabbage, evaluated 6 days after inoculation, read-out: efficacy. How it is done:
The active ingredients were made soluble and homogenized in a mixture of Dimethyl sulfoxide/Acetone//Tween® 80 and then diluted in water to the desired concentration. The young plants of radish or cabbage were treated by spraying the active ingredient prepared as described above. Control plants were treated only with an aqueous solution of Acetone/Dimethyl sulfoxide/Tween® 80. After 24 hours, the plants were contaminated by spraying the leaves with an aqueous suspension of Alternaria brassicae spores.

This is an account of results in patent US12543738B2 (Bayer Aktiengesellschaft, priority 2020, dated 2026).

The chromatographic logP is a lipophilicity value derived from retention on a column. Low readings indicate a more hydrophilic compound, high ones a more lipophilic compound. As a reminder, the inhibition is the percentage by which the read-out fell short of the control. Consider `Cc1ccc(CC2CON=C(c3cc(C)nnc3Oc3cccc(Cl)c3)N2)c(Br)c1` (racemic) [Compound I-001, (5RS)-5-(2-bromo-4-methylbenzyl)-3-[3-(3-chlorophenoxy)-6-methylpyridazin-4-yl]-5,6-dihydro-4H-1,2,4-oxadiazine], for which the chromatographic logP in [1] worked out at 3.94. Further, the pest or weed control at 500 ppm in data set [2], in data set [3], in data set [4], in data set [5] and in [11] was 90 to 100% throughout. For the same compound, the inhibition at 20 ppm in data set [6], in data set [7], in [8], in data set [9] and in [10] was 90 to 100% in each case.
The compound `Cc1cc(C)cc(CC2CON=C(c3cc(C)nnc3Oc3cccc(Cl)c3)N2)c1` (racemic) [Compound I-009, (5RS)-3-[3-(3-chlorophenoxy)-6-methylpyridazin-4-yl]-5-(3,5-dimethylbenzyl)-5,6-dihydro-4H-1,2,4-oxadiazine] registered a chromatographic logP in data set [1] of 3.87. The inhibition at 20 ppm in data set [6], in data set [7], in data set [8], in data set [9] and in data set [10] was 90 to 100% in each case.
In [1], `Cc1ccc(CC2CON=C(c3cc(C)nnc3Oc3cccc(C4(F)CC4)c3)N2)c(C)c1` (racemic) [Compound I-015, (5RS)-5-(2,4-dimethylbenzyl)-3-{3-[3-(1-fluorocyclopropyl)phenoxy]-6-methylpyridazin-4-yl}-5,6-dihydro-4H-1,2,4-oxadiazine] yielded a chromatographic logP of 3.78. Further, the pest or weed control at 500 ppm in data set [2], in data set [3], in [4], in data set [5] and in [11] was 90 to 100% in each case. For the same compound, the inhibition at 20 ppm in [6] fell in the range of 90 to 100%; in data set [7] it was 80 to 89%; in data set [8], 90 to 100%; in data set [9] it was 90 to 100%.
The compound `C=C(OCC)c1cc(C2=NOCC(Cc3ccc(Cl)cc3Cl)N2)c(Oc2cccc(C3CC3)c2)nn1` (racemic) [Compound I-019, (5RS)-3-[3-(3-cyclopropylphenoxy)-6-(1-ethoxyvinyl)pyridazin-4-yl]-5-(2,4-dichlorobenzyl)-5,6-dihydro-4H-1,2,4-oxadiazine] came in with a chromatographic logP in data set [1] of 5.19. Besides, the pest or weed control at 500 ppm in data set [2], in data set [3], in [4], in data set [5] and in data set [11] was 90 to 100% in each case. The inhibition at 20 ppm in [6] lay within 90 to 100%; in data set [7], 70 to 79%; in [8], 90 to 100%; in data set [9], 90 to 100%.
`Cc1ccc(CC2CON=C(c3cc(C(C)O)nnc3Oc3cccc(C4CC4)c3)N2)c(C)c1` (stereo not drawn) [Compound I-016, 1-{6-(3-cyclopropylphenoxy)-5-[5-(2,4-dimethylbenzyl)-5,6-dihydro-4H-1,2,4-oxadiazin-3-yl]pyridazin-3-yl}ethanol]: the chromatographic logP in [1] stood at 3.55. Further, the pest or weed control at 500 ppm in data set [2] was 90 to 100%; in [3] it was 80 to 89%; in data set [4], 90 to 100%; in [5], 90 to 100%; in [11], 90 to 100%. The inhibition at 20 ppm in [6], in data set [8], in data set [9] and in data set [10] was 90 to 100% throughout.
On to `CC(O)c1cc(C2=NOCC(Cc3ccc(Cl)cc3Cl)N2)c(Oc2cccc(C3CC3)c2F)nn1` (stereo not drawn) [Compound I-023, 1-{6-(3-cyclopropyl-2-fluorophenoxy)-5-[5-(2,4-dichlorobenzyl)-5,6-dihydro-4H-1,2,4-oxadiazin-3-yl]pyridazin-3-yl}ethanol], for which the chromatographic logP in [1] was 3.87. The pest or weed control at 500 ppm in data set [2], in [3], in data set [4], in [5] and in data set [11] was 90 to 100% each time. Also, the inhibition at 20 ppm in [6], in data set [7], in [8] and in data set [9] was 90 to 100% throughout.
